We go through six compounds from patent publication US20030070691A1, “Biocide formation via ozonation” (priority 2000, published 2003).

“And” between values parts separate entries of the source, which are not always exact repeats. Identical values can stand only once. Like-named read-outs stand apart in the source and are kept apart here. Where only a bound is given, the exact number is not on record here.

The subject of series [1] is Klebsiella pneumoniae (Gram negative). Put plainly: Biocidal test on dried cells on glass slides. The class given is cell-based. The protocol:
(§1) 0.1 milliliters of a 3×10^6 cfu/mL solution of bacteria cells harvested from a mid-log phase culture were placed on a glass microscope slide. The solution was allowed to dry for 2 hours leaving only cells on the surface. The slides were treated by immersing them in 10 mL of either: (i) sterile water; (ii) 10% ethanol in water; (iii) 10% ozonated ethanol in water; or (iv) 1% ozonated ethanol in water for either 5 or 20 seconds. Immediately after treatment the slides were removed from solution and immersed in 3-mL of a sterile saline solution and ultrasonicated for 10 minutes to dislodge the cells from the slide. The recovered cells were diluted, plated, and incubated at 37° C. overnight and colonies were counted to determine the number of survivors per slide. Initial recovery was determined using the above procedure but the treatment step was omitted.

Series [2] has as its system Enterococcus faecium (Gram positive). The series can be described thus: Biocidal test on dried cells on glass slides. It is filed as cell-based. The protocol:
as §1

The conditions of series [3]: at 20° C.; Handbook of Chemistry and Physics; cited from earlier work.
The next series concerns Bacillus subtilis spores. Put plainly: Bacillus subtilis spore carrier disinfection test. It is filed as cell-based. The conditions noted are these: 30 minutes contact.
For series [4] the following is noted: neutral aqueous solution, cited from earlier work.
Series [5] is described as follows: Dissolved ozone concentration by indigo colorimetric method. It is filed as physicochemical. The note with it: for dissolved ozone concentration: ozonated 5 minutes, 10 wt % ozone gas. Here is the method: Solutions containing varying amounts of acetic acid were saturated with ozone. Solutions were prepared containing 50%, 75%, 90%, 95%, and 99% by volume acetic acid in water. In separate experiments, 100 mL of the above solutions were placed in 250 mL round bottom flasks fitted with a ground glass top. The top contained two fittings that permitted gas flow in through one fitting and gas flow out through the other. A mixture of ozone and oxygen was delivered from Lynntech's Model 124 Electrochemical Ozone generator to the solution through a stainless steel gas diffusing stone. The flow rate was approximately 1,000 mL of gas per minute, and the concentration of ozone was 10% by weight. The solutions were ozonated for 5 minutes and the concentration of dissolved ozone was determined by the indigo calorimetric method. An additional solution of 100 mL of deionized water and a solution of 100 mL of glacial acetic acid were also ozonated.
The concentration of dissolved ozone was determined by the indigo colorimetric method. An indigo stock solution was prepared by adding 500 mL of deionized water and 1 mL of phosphoric acid to a 1 L volumetric flask. 770 mg of potassium indigo trisulfonate was added to the flask, and stirring was continued until the dye was completely dissolved. The flask was filled to the mark with deionized water. A working indigo solution was prepared by adding 20 mL of indigo stock solution, 10 g of sodium dihydrogen phosphate (NaH2PO4), and 7 mL of concentrated phosphoric acid to a 1 L volumetric flask. The flask was filled to the mark with deionized water. The concentration of ozone in solution was determined by adding an aliquot of ozonated solution (typically 30 μL) to 3 mL of working indigo solution in a 1 cm path-length quartz cuvette. The cuvette was capped with a piece of Parafilm® (American National Can Company, Chicago, Ill.) and inverted a few times to mix the solutions. As a blank, the same volume the equivalent non-ozonated solution was added to 3 mL of working indigo solution in a matched cuvette and mixed. […] The absorbance at 600 nm was measured to provide the difference in absorbance between the blank and the sample. […]
where ΔA is the difference in absorbance between the sample and the blank, b is the path-length of the cuvette, Vw is the volume of working indigo solution, Vs is the volume of sample, and f is 0.42. f is based on a sensitivity factor of 20,000/cm for the change in absorbance at 600 nm per mole of ozone added per liter. […]
200 mL of 81% acetic acid by volume (in DI water) water was ozonated in a glass flask. […] At the same time a liquid sample was withdrawn from the beaker and its ozone concentration measured by the method described above. […]

The nature of series [6]: Stability of ozonated ethanol solutions over 72 hours. It is filed as physicochemical. The note with it: ethanol (99 vol. %) ozonated 4 hours at 22° C.; 72-hour period. The protocol:
The first step was the titration of hydrogen peroxide with ceric sulfate. A small amount of the peracetic acid solution (0.25 mL) was placed in 100 mL of ice-cold 1 N H2SO4 to which was also added three drops of ferroin indicator (Aldrich Chemical Company, Milwaukee, Wis.). The faint pink colored solution was then titrated with 0.1 M Ce(SO4)2 until the colorless endpoint was reached. Because cerium(IV) has a higher oxidation potential than hydrogen peroxide, hydrogen peroxide was oxidized to protons and molecular oxygen according the stoichiometry shown in the following reaction:
5 mL of 0.18 M KI was added to the solution and the mixture was stirred for 30 seconds. The solution was then placed in the dark for 30 minutes. After the 30-minute reaction time, the solution was yellowish brown and the color was proportional to the amount of peracetic acid originally present in the solution. The brown color was produced by oxidation of the colorless iodide anion (I^−) to the brown-colored iodine (I2) molecule by peracetic acid as shown in the following reaction: […]
Experiments were done to determine the stability of ozonated ethanol solutions over a 72-hour period. Ethanol (99 vol. %) was ozonated for 4 hours at 22° C. and the amount of AMP and peracetic acid was measured as a function of time over the next three days. […]

Where [7] appears, read: 5-second contact time, Log10 Start 5.3, Table 6.
Setting [8] is: 20-second contact time, Log10 Start 4.8, Table 5.
The mark [9] stands for this setting: 20-second contact time, Log10 Start 6.3, Table 8.
[10] abbreviates: 5-second contact time, Log10 Start 4.9, Table 4.
Setting [11] is: 20-second contact time, Log10 Start 5.4, Table 3.
Setting [12] is: 20-second contact time, Log10 Start 7.4, Table 7.

Description for Bacillus subtilis spores: Preparation of carriers. In each of the following examples, the disinfection solutions were evaluated using spores of Bacillus subtilis. Spores were placed onto glass carriers formed by cutting microscope slides in half lengthways. Slides were placed in a culture tube that was capped and sterilized prior to inoculation with spores. A total of 0.1 mL of a spore suspension containing 10% bovine serum albumin by weight was placed onto a small area near one end of the slide. Approximately 20 μL (microliters) of spore suspension was added at a time for 5 times, allowing each 20μL amount to dry between additions. Heat drying was performed by briefly holding the slide over a flame. The heat-fixed culture was stored in the refrigerator until needed for up to, but no longer than, 5 days.
Disinfection of carriers. In the following examples, three vials were prepared, each containing 200 mL of the disinfectant composition to be evaluated. One spore carrier was placed into each vial. The spore carriers were held in the disinfection solutions for 30 minutes. After contacting was complete, the carriers were removed from the disinfection solutions using forceps and rinsed with sterile saline.
Spore recovery and enumeration. After rinsing, each of the slides was placed in a sterile tube containing 2 mL of saline. […] Invert plates were incubated at 37° C. and counted after 24 hours. […]

In the case of `CCO` [10 vol. % Ethanol in Water (control), Ethanol], the “Log10 Recovered” value in series [1] (setting [7]) was found to be 3.3 Log10; in series [1] (setting [8]) it was 4.3 Log10; in series [1] (setting [9]), 6.4 Log10; in series [2] (setting [10]), 4.3 Log10; in series [2] (setting [11]), 5.2 Log10; in series [2] (setting [12]), 4.5 Log10. Also, the “Log10 Reduction” value is listed as 2.0 Log10 in series [1] (setting [7]); 0.5 Log10 in series [1] (setting [8]); −0.1 Log10 in series [1] (setting [9]); 0.6 Log10 in series [2] (setting [10]); 0.2 Log10 in series [2] (setting [11]); 2.9 Log10 in series [2] (setting [12]).

As to `CCCC(=O)O` [butyric acid], the published ionization constant in series [3] is 4.81.

For `CC(=O)O` [non-ozonated 81% acetic acid, acetic acid], the “log reduction in viable spores, best achieved” value in the series on Bacillus subtilis spores (Example 11) is not above 2.87 log. Also, the “sporicidal / disinfection activity in words” value in the series with Bacillus subtilis spores (glass carriers, spores in 10% bovine serum albumin) is recorded as “relatively ineffective”.

As to `O=[O+][O-]` [ozone], the “Ozone Concentration (solubility)” value in series [4] (0° C.) was 35 (ppm); in series [4] (20° C.), 21 ppm; in series [4] (40° C.), 4 ppm; in series [4] (60° C.) it was 0 ppm. In addition, the “initial ozone concentration at the time the spore carriers were immersed” value in series [5] (in 81% acetic acid ozonated 10 minutes) is 125 ppm and 175 ppm. The dissolved ozone concentration result in series [5] (in DI water) is on record as “about 30 ppm”; in series [5] (in pure acetic acid), “greater than 400 ppm”. In addition, the initial ozone concentration in series [5] (in ozonated DI water, Example 11) is not above 31 ppm.

For the compound `CC(=O)OO` [peracetic acid], the “concentration in solution over time” value in series [6] is “constant”.

In the case of acetaldehyde monoperacetate [AMP], in series [6], the “concentration in solution over time” value is “decreases considerably”.
